Read-outs that look alike come from different tables or passages of the source. Marks after values point to notes of the source that are not given here.
Assays:
[1] = system: human colon cancer xenograft COL-1 strain; test: Preliminary test: maximum tolerable dose of capecitabine (Pharmacological Test Example 5); assay type: in vivo, male nude mice BALB/c-nu/nu; settings: capecitabine po once a day 14 days at 240, 360 or 540 mg/kg with l-OHP 4.2 mg/kg/day iv days 1 and 8
Description: A fragment measuring about 2 mm cubic fragment of the human colon cancer xenograft COL-1 strain was subcutaneously implanted on the backs of male nude mice BALB/c-nu/nu. When the average tumor volume (=0.5×major axis (mm)×minor axis (mm)^2) reached about 190 mm^3, the mice were divided into groups (day 0). Capecitabine suspended in 0.5% HPMC solution was orally administered to the mice once a day at 240, 360, or 540 mg/kg from the day after grouping for 14 consecutive days. l-OHP dissolved in 5% aqueous glucose solution was administered into the tail vein on days 1 and 8 at 4.2 mg/kg/day immediately before the administration of the Capecitabine. The difference in body weight between the mice on day 0 and the mice on day 15 presented as a ratio and the occurrence of death were used as indices of systemic toxicity of capecitabine.

[2] = system: human colon cancer xenograft KM20C strain; test: Antitumor effect on human colon cancer xenograft KM20C in nude rats (Pharmacological Test Example 1); settings: TS-1 12 or UFT 24 mg/kg/day as tegafur (+ LV 20) po 14 days, l-OHP 10 mg/kg iv day 1
Excerpt: A tegafur/gimeracil/oteracil potassium compound pharmaceutical agent (tegafur/gimeracil/oteracil potassium molar ratio=1:0.4:1, hereinafter sometimes referred to as TS-1), a tegafur/uracil compound pharmaceutical agent (tegafur/uracil molar ratio=1:4, hereinafter sometimes referred to as UFT), and d,l-calcium folinate were independently dissolved or suspended in 0.5% hydroxypropylmethyl cellulose (HPMC) solutions, and pharmaceutical preparations were formulated so as to allow administration thereof in a final dosage of 10 mL/kg.
l-OHP was dissolved in 5% aqueous glucose solution (Otsuka Glucose, manufactured by Otsuka Pharmaceutical Factory Inc.), thereby giving an l-OHP preparation.
A fragment measuring about 2 mm cubic fragment of the human colon cancer xenograft KM20C strain was subcutaneously implanted on the backs of male nude rats F344/NJcl-rnu. When the average tumor volume (=0.5×major axis (mm)×minor axis (mm)^2) reached about 200 mm^3, the rats were divided into groups (day 0).
The TS-1 preparation or the UFT+LV preparation prepared above was orally administered once a day in amounts presented in Table 1 from the day after grouping (day 1) for 14 consecutive days. The l-OHP preparation was administered into the tail vein on day 1 at 10 mg/kg immediately before the administration of the aforementioned preparations.
The ratio of the tumor volume upon grouping (day 0) to the tumor volume on day 15 was regarded as the relative tumor volume: Tumor volume on day 15/Tumor volume on day 0
The extent of tumor growth inhibition (%) was calculated using the average relative tumor volume of the drug-administered groups and the average relative tumor volume of the control group:
[1−(Relative tumor volume of drug-administered group)/(Relative tumor volume of tumor-bearing control group)]×100 (%)
The difference in body weight between rats on day 0 and rats on day 15 presented as a ratio (extent of body weight change) was used as an index of systemic toxicity of the pharmaceutical preparation: […]

[3] = system: human colon cancer xenograft HCT-15 strain; test: Action toward a multidrug-resistant strain (Pharmacological Test Example 3); assay type: in vivo, male nude mice BALB/c-nu/nu
Excerpt: A fragment measuring about 2 mm cubic fragment of the human colon cancer xenograft HCT-15 strain, which expresses P-glycoprotein in large amounts and is resistant to multiple drugs, was subcutaneously implanted on the backs of male nude mice BALB/c-nu/nu. When the average tumor volume (=0.5×major axis (mm)×minor axis (mm)^2) reached about 200 mm^3, the mice were divided into groups (day 0). A TS-1 preparation as prepared in Pharmacological Test Example 1 was orally administered to the mice once a day in an amount as shown in Table 3 from day 1 for 14 consecutive days. The l-OHP preparation was administered only once into the tail vein on day 1 at 10.0 mg/kg immediately before the administration of the TS-1 preparation. The extent of tumor growth inhibition was calculated as in Pharmacological Test Example 1. Using the relative tumor volumes on day 15, the difference in relative tumor volume between the control group and the drug-administered groups was determined according to a Dunnett's test, and the difference between the one which was given either TS-1 or l-OHP and the one which was given TS-1 and l-OHP in combination was evaluated according to Student's t-test.

[4] = system: human colon cancer xenograft COL-1 strain; settings: l-OHP into the tail vein on days 1 and 8
Description: A fragment measuring about 2 mm cubic fragment of the human colon cancer xenograft COL-1 strain was subcutaneously implanted on the backs of male nude mice BALB/c-nu/nu. When the average tumor volume (=0.5×major axis (mm)×minor axis (mm)^2) reached about 170 mm^3, the mice were divided into groups (day 0).
For the determination of antitumor effect, the ratio of the tumor volume upon grouping (day 0) to the tumor volume on day 15 was calculated to obtain a relative tumor volume. The extent of tumor growth inhibition was determined using the average relative tumor volumes of the drug-administered groups and the control group. Using the relative tumor volumes on the test day, the statistical significance of the difference in relative tumor volume between the control group and the one which was given the pharmaceutical agents was analyzed according to a Dunnett's test; and the statistical significance of the difference in relative tumor volume between the one which was given TS-1 and l-OHP in combination and the one which was given capecitabine and l-OHP in combination was analyzed according to Student's t-test. The extent of body weight change between the mice on day 0 and the mice on day 15 was used as an index of systemic toxicity of the pharmaceutical preparations.

[5] = system: 5-FU-resistant strain of the human colon cancer xenograft KM12C strain; test: Action toward a 5-FU-resistant strain (Pharmacological Test Example 2); settings: TS-1 8.3 mg/kg/day as tegafur po 9 days, l-OHP 8.3 mg/kg iv day 1
Description: A fragment measuring about 2 mm cubic fragment of a 5-FU-resistant strain of the human colon cancer xenograft KM12C strain established by the applicant was subcutaneously implanted on the backs of male nude mice BALB/c-nu/nu. When the average tumor volume (=0.5×major axis (mm)×minor axis (mm)^2) reached about 200 mm^3, the mice were divided into groups (day 0). […] The ratio of the tumor volume on day 0 to the tumor volume on day 10 was calculated to obtain a relative tumor volume.

[6] = system: human colon cancer xenograft COL-1 strain; settings: TS-1 where given 6.9 mg/kg as tegafur po 14 days; for Relative tumor volume (Mean): day 15/day 0; for Extent of tumor growth inhibition (%): day 15; for Extent of body weight change (%): day 15 vs day 0
Description: A fragment measuring about 2 mm cubic fragment of the human colon cancer xenograft COL-1 strain was subcutaneously implanted on the backs of male nude mice BALB/c-nu/nu. When the average tumor volume (=0.5×major axis (mm)×minor axis (mm)^2) reached about 125 mm^3, the mice were divided into groups (day 0).
For the determination of antitumor effect, the ratio of the tumor volume upon grouping (day 0) to the tumor volume on day 15 was calculated to obtain a relative tumor volume. The extent of tumor growth inhibition was determined using the average relative tumor volumes of the drug-administered groups and the control group.
The extent of body weight change between the mice on day 0 and the mice on day 15 was used as an index of systemic toxicity of l-OHP.

[7] = system: 5-FU decomposition; settings: compared with uracil; cited from earlier work
[8] = l-OHP 2.9 mg/kg iv days 1 and 8
[9] = l-OHP 3.5 mg/kg iv days 1 and 8
[10] = l-OHP 4.2 mg/kg iv days 1 and 8
[11] = l-OHP 5.0 mg/kg iv days 1 and 8

Compound: CCCCCOC(=O)Nc1nc(=O)n([C@@H]2O[C@H](C)[C@@H](O)[C@H]2O)cc1F [capecitabine]
- maximum tolerable dose at which death due to toxicity is not observed [1]: 360 mg/kg/day

Compound: O=C([O-])C(=O)[O-].[NH-][C@@H]1CCCC[C@H]1[NH-].[Pt+4] (relative stereo) [l-OHP, cis-oxalate(1R,2R-diaminocyclohexane)platinum(II)]
- Relative tumor volume (Mean) ([2]; day 15/day 0): 4.64
- Extent of tumor growth inhibition (%) ([2]; day 15): 20.1%
- Extent of body weight change (%) ([2]; day 15 vs day 0): 0.9%
- Relative tumor volume (Mean) ([3]; day 15/day 0, TS-1 10 mg/kg/day as tegafur po 14 days, l-OHP 10 mg/kg iv once day 1): 4.33
- Extent of tumor growth inhibition (%) ([3]; day 15, TS-1 10 mg/kg/day as tegafur po 14 days, l-OHP 10 mg/kg iv once day 1): 4.3%
- antitumor effect on the multidrug-resistant tumor (in words) ([3]; l-OHP alone, 10 mg/kg iv once day 1): barely shows any antitumor effect
- maximum tolerable dose [4]: 4.2 mg/kg/day
- Relative tumor volume (Mean) ([5]; day 10/day 0): 7.97
- Extent of tumor growth inhibition (%) ([5]; day 10): 16.1%
- Extent of body weight change (%) ([5]; day 10 vs day 0): −8.0%
- Relative tumor volume (Mean) [6, 8]: 5.06 ^§
- Relative tumor volume (Mean) [6, 9]: 4.54 ^§, *
- Relative tumor volume (Mean) [6, 10]: 4.43 ^§, **
- Relative tumor volume (Mean) [6, 11]: 4.41 ^§, **
- Extent of tumor growth inhibition (%) [6, 8]: 11.9%
- Extent of tumor growth inhibition (%) [6, 9]: 21.0%
- Extent of tumor growth inhibition (%) [6, 10]: 23.0%
- Extent of tumor growth inhibition (%) [6, 11]: 23.3%
- Extent of body weight change (%) [6, 8]: −18.0%
- Extent of body weight change (%) [6, 9]: −20.6%
- Extent of body weight change (%) [6, 10]: −19.0%
- Extent of body weight change (%) [6, 11]: −16.8%
- Number of dead animal [6, 8]: 0
- Number of dead animal [6, 9]: 0
- Number of dead animal [6, 10]: 0
- Number of dead animal [6, 11]: 0

Compound: Oc1cc(O)c(Cl)cn1 [gimeracil, 2,4-dihydroxy-5-chloropyridine]
- 5-FU decomposition inhibitory action relative to that of uracil [7]: about 200 times
